Experiments:
Assay in all cases: relative viability (nuclei count vs DMSO), 5 days (fraction); higher = more cells survive
[1] = compound: C=CC(=O)N1CCC[C@@H](n2nc(-c3ccc(Oc4ccccc4)cc3)c3c(N)ncnc32)C1 [Ibrutinib] + Cc1nc(NC(=O)N2CCC[C@H]2C(N)=O)sc1-c1ccnc(C(C)(C)C(F)(F)F)c1 [Alpelisib] (partner 2 µM)
Method in brief: (§1)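 Relative viability divides the nuclei count in treated wells by that in vehicle wells. Lung cancer cell lines were seeded in 1536-well plates, dosed by pin tool the next day, and fixed and stained after 5 days in one step with final 0.05% Triton X-100, 1% formaldehyde and 1 ug/ml Hoechst. Dosing was a single drug or a fixed anchor-drug dose plus five library-drug doses (not always all listed) in √10 steps, and values are medians of duplicate plates imaged at 4×.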

[2] = compound: C=CCc1cccc(/C=N/NC(=O)CN2CCN(Cc3ccccc3)CC2)c1O [PAC-1] + CS(=O)(=O)N1CCN(Cc2cc3nc(-c4cccc5[nH]ncc45)nc(N4CCOCC4)c3s2)CC1 [Pictilisib] (partner 1 µM)
Method in brief: as §1

[3] = compound: C=CC(=O)N1CCC[C@@H](n2nc(-c3ccc(Oc4ccccc4)cc3)c3c(N)ncnc32)C1 [Ibrutinib] + CC(=O)Nc1cccc(-n2c(=O)n(C3CC3)c(=O)c3c(Nc4ccc(I)cc4F)n(C)c(=O)c(C)c32)c1 [Trametinib] (partner 0.02 µM)
Method in brief: as §1

[4] = compound: C=CC(=O)Nc1cc(-n2c(=O)ccc3cnc4ccc(-c5ccc(NS(C)(=O)=O)cc5)cc4c32)ccc1C [BMX-IN-1] + Nc1ncn([C@H]2C[C@H](O)[C@@H](CO)O2)c(=O)n1 [Decitabine] (partner 2 µM)
Method in brief: as §1

Row | Cell Line | relative viability ([1]; first compound 0.005 µM) | relative viability ([1]; first compound 0.01581 µM) | relative viability ([1]; first compound 0.05 µM) | relative viability ([1]; first compound 0.1581 µM) | relative viability ([1]; first compound 0.5 µM) | relative viability ([2]; first compound 0.02 µM) | relative viability ([2]; first compound 0.06325 µM) | relative viability ([2]; first compound 0.2 µM) | relative viability ([2]; first compound 2 µM) | relative viability ([3]; first compound 0.005 µM) | relative viability ([3]; first compound 0.01581 µM) | relative viability ([3]; first compound 0.05 µM) | relative viability ([3]; first compound 0.1581 µM) | relative viability ([3]; first compound 0.5 µM) | relative viability ([4]; first compound 0.02 µM) | relative viability ([4]; first compound 0.2 µM) | relative viability ([4]; first compound 0.6325 µM) | relative viability ([4]; first compound 2 µM)
1 | HCC-44 | 0.864 | 0.658 | 0.874 | 0.87 | 0.724 | 0.455 | 0.697 | 0.666 | 0.648 | 1.04 | 1.04 | 0.992 | 1.19 | 1.06 | 0.988 | 0.969 | 1.01 | 0.981
2 | HCC-78 | 0.346 | 0.315 | 0.292 | 0.391 | 0.24 | 0.179 | 0.196 | 0.236 | 0.195 |  | 0.569 | 0.622 | 0.698 | 0.706 | 0.743 | 0.766 | 0.789 | 0.802
3 | HCC-366 | 0.459 | 0.496 | 0.372 | 0.414 | 0.466 | 0.203 | 0.142 | 0.149 | 0.184 | 0.34 | 0.366 | 0.317 | 0.394 | 0.391 | 0.356 | 0.378 | 0.416 | 0.39
4 | HCC-827 | 0.952 | 0.819 | 0.901 | 0.992 | 0.278 | 1.12 | 1.01 | 0.99 | 0.983 | 0.49 | 0.489 | 0.416 | 0.509 | 0.196 | 0.27 | 0.31 | 0.342 | 0.292
5 | HOP-62 | 0.638 | 0.954 | 1.02 | 1.2 | 0.918 | 0.653 | 0.573 | 0.689 | 0.726 | 0.367 | 0.331 | 0.374 | 0.424 | 0.385 | 0.214 | 0.255 | 0.26 | 0.237
6 | IA-LM | 0.826 | 0.732 | 0.682 | 0.658 | 1 | 0.339 | 0.363 | 0.355 | 0.456 |  |  |  |  |  |  |  |  | 
7 | LC-2-ad | 0.874 | 0.944 | 0.936 | 0.836 | 0.758 | 0.523 | 0.588 | 0.511 | 0.56 | 0.914 | 0.907 |  | 0.929 | 0.863 | 0.836 | 0.938 | 0.889 | 0.733
8 | LCLC-97TM1 | 0.241 | 0.3 | 0.335 | 0.269 | 0.255 |  | 0.206 | 0.178 | 0.231 | 0.192 | 0.172 | 0.202 | 0.192 | 0.155 | 0.259 | 0.224 | 0.208 | 0.264
9 | LCLC-103H | 0.897 | 0.86 | 1.02 | 0.992 | 0.949 | 0.549 | 0.612 | 0.592 | 0.638 | 0.677 | 0.645 | 0.716 | 0.739 | 0.605 | 0.795 | 0.782 | 0.714 | 0.689
10 | LK-2 |  | 0.837 | 1.36 | 0.938 | 0.89 | 0.612 | 0.607 | 0.642 | 0.502 | 0.931 | 0.7 | 0.816 | 0.702 | 0.668 | 0.262 | 0.326 | 0.269 | 0.335
11 | LOU-NH91 | 0.652 | 0.597 | 0.592 | 0.67 | 0.48 | 0.494 | 0.521 | 0.545 | 0.514 | 0.744 | 0.74 | 0.725 | 0.783 | 0.655 |  | 0.799 | 0.842 | 0.828
12 | NCI-H522 |  |  |  |  |  |  |  |  |  | 0.757 | 0.714 | 0.661 | 0.71 | 0.57 | 0.692 | 0.633 | 0.725 | 0.624
13 | NCI-H1299 | 1.08 | 1.01 | 1.03 | 1.06 | 1.06 | 0.876 | 0.763 | 0.815 | 0.657 |  |  |  |  |  |  |  |  | 
14 | NCI-H1563 | 1 | 0.883 | 0.882 | 1.09 | 0.946 | 0.641 | 0.695 | 0.752 | 0.63 |  |  |  |  |  |  |  |  | 
15 | NCI-H1648 |  |  |  |  |  |  |  |  |  | 0.565 | 0.433 | 0.316 | 0.418 | 0.257 | 0.511 | 0.467 | 0.616 | 0.506
16 | NCI-H1650 |  |  |  |  |  | 0.53 | 0.608 | 0.582 | 0.515 | 0.881 | 0.535 | 0.46 | 0.527 | 0.477 | 0.438 | 0.385 | 0.473 | 0.548
17 | NCI-H1703 | 0.273 | 0.362 | 0.362 | 0.397 | 0.243 | 0.245 | 0.267 | 0.249 | 0.205 |  |  |  |  |  |  |  |  | 
18 | NCI-H2228 | 0.807 | 0.677 | 0.747 | 0.723 | 0.671 | 0.42 | 0.507 | 0.397 | 0.362 | 0.379 | 0.488 | 0.412 | 0.55 | 0.298 |  |  |  | 
19 | NCI-H2342 |  |  |  |  |  |  |  |  |  | 0.801 | 0.873 | 0.659 | 0.773 | 0.676 | 0.698 | 0.751 | 0.748 | 0.742
20 | SW 900 |  |  |  |  |  |  |  |  |  | 0.86 | 0.654 | 0.803 | 0.901 | 0.603 | 0.564 | 0.51 | 0.461 | 0.539
